{"source": "patent US8153795B2", "about": "“Substituted 1-oxa-3,8-diazaspiro[4.5]-decan-2-one-compounds and the use thereof for producing drugs” (Gruenenthal GmbH, priority 2005, dated 2012)", "data": [{"biological_target": "T1, 5-HT transporter (Rattus norvegicus, UniProt P31652)", "T1 construct": "from tissue; host or cells: rat brain synaptosomes (P2 fraction) from medulla and pons", "T1 sequence (P31652 whole entry)": "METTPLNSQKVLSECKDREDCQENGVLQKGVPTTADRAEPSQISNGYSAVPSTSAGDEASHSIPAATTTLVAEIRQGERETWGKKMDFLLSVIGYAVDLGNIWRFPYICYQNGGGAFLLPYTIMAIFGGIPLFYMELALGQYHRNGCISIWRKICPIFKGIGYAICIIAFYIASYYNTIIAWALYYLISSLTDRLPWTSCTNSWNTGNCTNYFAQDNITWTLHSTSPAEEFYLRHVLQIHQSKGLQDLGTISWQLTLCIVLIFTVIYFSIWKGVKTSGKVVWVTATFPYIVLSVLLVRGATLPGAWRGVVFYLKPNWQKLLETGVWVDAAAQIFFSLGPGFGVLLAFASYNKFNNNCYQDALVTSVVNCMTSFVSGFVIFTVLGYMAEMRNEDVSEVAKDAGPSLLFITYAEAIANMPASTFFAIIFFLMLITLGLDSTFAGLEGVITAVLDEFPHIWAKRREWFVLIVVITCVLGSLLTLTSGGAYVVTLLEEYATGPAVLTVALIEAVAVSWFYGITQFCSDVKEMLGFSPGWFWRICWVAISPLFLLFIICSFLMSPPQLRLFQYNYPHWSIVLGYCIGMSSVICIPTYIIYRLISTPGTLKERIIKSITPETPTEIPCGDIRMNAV", "assay": "5-HT uptake inhibition in rat brain synaptosomes (medulla and pons), [3H]-5-HT", "format": "biochemical", "from_the_text": "a) Method for Determining Noradrenalin and 5-HT Uptake Inhibition:\nSynaptosomes from rat brain regions are freshly isolated for in vitro studies, as described in the publication “The isolation of nerve endings from brain” by E. G. Gray and V. P. Whittaker, J. Anatomy 96, pages 79-88, 1962. The corresponding literature description is hereby introduced as a reference and is deemed to be part of the disclosure.\nThe tissue (hypothalamus for the determination of noradrenalin uptake inhibition and medulla and pons for the determination of 5-HT uptake inhibition) is homogenised in ice-cooled 0.32 M sucrose (100 mg of tissue/1 mL) in a glass homogeniser with Teflon pestle using five complete up and down strokes at 840 revolutions/minute.\nThe homogenate is centrifuged at 4° C. for 10 minutes at 1000 g. After subsequent centrifugation at 17000 g for 55 minutes, the synaptosomes (P2 fraction) are obtained, which are resuspended in 0.32 M […] (0.5 mL/100 mg of original weight).\nThe particular uptake is measured in a 96-well microtitre plate. The volume is 250 μl and the incubation proceeds at room temperature (approx. 20-25° C.) under an O2 atmosphere.\nThe incubation time is 7.5 minutes for [^3H]-NA and 5 minutes for [^3H]-5-HT. The 96 samples are then filtered through a Unifilter GF/B® microtitre plate (Packard) and washed with 200 mL of incubated buffer using a “Brabdel MPXRI-96T Cell-Harvester”. The Unifilter GF/B plate is dried for 1 hour at 55° C. The plate is then sealed with a Back Seal® (Packard) and 35 μl of scintillation fluid are added per well (Ultima Gold®, Packard). After sealing with a top Seal® (Packard) and establishing an equilibrium (around 5 hours), radioactivity is determined in a “Trilux 1450 Microbeta” (Wallac).\nThe quantity of protein used in the above determination corresponds to the values known from the literature, as for example described in “Protein measurement with the folin phenol reagent”, Lowry et al., J. Biol. Chem., 193, 265-275, 1951.\nA detailed description of the method may additionally be found in the literature, for example in M. Ch. Frink, H.-H. Hennies, W. Engelberger, M. Haurand and B. Wilffert (1996) Arzneim.-Forsch./Drug Res. 46 (III), 11, 1029-1036.", "units": {"inhibition at 10 µM": "%"}, "values": [{"smiles": "CC(NC(=O)N1CCC2(CC1)CN(Cc1ccccc1C(F)(F)F)C(=O)O2)c1cccc2ccccc12", "note": "(stereo not drawn) [Example 54, 2-oxo-3-(2-trifluoromethylbenzyl)-1-oxa-3,8-diazaspiro[4.5]decane-8-carboxylic acid (1-naphthalen-1-yl-ethyl)amide]", "inhibition at 10 µM": 75}, {"smiles": "N#Cc1ccccc1CN1CC2(CCN(C(=O)Nc3cc(F)ccc3F)CC2)OC1=O", "note": "[Example 32, 3-(2-cyanobenzyl)-2-oxo-1-oxa-3,8-diazaspiro[4.5]decane-8-carboxylic acid (2,5-difluorophenyl)amide]", "inhibition at 10 µM": 56}, {"smiles": "CC(=O)Nc1ccc(C(=O)N2CCC3(CC2)CN(Cc2cccc(C#N)c2)C(=O)O3)cc1", "note": "[Example 91, N-{4-[3-(3-cyanobenzyl)-2-oxo-1-oxa-3,8-diazaspiro[4.5]decane-8-carbonyl]phenyl}acetamide]", "inhibition at 10 µM": 68}, {"smiles": "O=C(CN1CCC2(CC1)CN(Cc1ccc(SC(F)(F)F)cc1)C(=O)O2)Nc1csc(C(F)(F)F)c1-c1ccccc1", "note": "[Example 85, 2-[2-oxo-3-(4-trifluoromethylsulfanylbenzyl)-1-oxa-3,8-diazaspiro[4.5]dec-8-yl]-N-(4-phenyl-5-trifluoromethylthiophen-3-yl)acetamide]", "inhibition at 10 µM": 90}, {"smiles": "CC(CC(=O)O)CC(=O)N1CCC2(CC1)CN(Cc1ccccc1-c1ccccc1)C(=O)O2", "note": "(stereo not drawn) [Example 73, 5-(3-biphenyl-2-ylmethyl-2-oxo-1-oxa-3,8-diazaspiro[4.5]dec-8-yl)-3-methyl-5-oxopentanoic acid]", "inhibition at 10 µM": 57}, {"smiles": "CCc1ccc(CS(=O)(=O)N2CCC3(CC2)CN(Cc2cccc(Br)c2)C(=O)O3)cc1", "note": "[Example 102, 3-(3-bromobenzyl)-8-(4-ethylbenzylsulfonyl)-1-oxa-3,8-diazaspiro[4.5]decan-2-one]", "inhibition at 10 µM": 67}, {"smiles": "CC(NC(=O)N1CCC2(CC1)CN(Cc1ccc(C(F)(F)F)cc1)C(=O)O2)c1cccc2ccccc12", "note": "(stereo not drawn) [Example 48, 2-oxo-3-(4-trifluoromethylbenzyl)-1-oxa-3,8-diazaspiro[4.5]decane-8-carboxylic acid (1-naphthalen-1-yl-ethyl)amide]", "inhibition at 10 µM": 43}, {"smiles": "N#Cc1cccc(NC(=O)N2CCC3(CC2)CN(Cc2ccc(SC(F)(F)F)cc2)C(=O)O3)c1", "note": "[Example 38, 2-oxo-3-(4-trifluoromethylsulfanylbenzyl)-1-oxa-3,8-diazaspiro[4.5]decane-8-carboxylic acid (3-cyanophenyl)amide]", "inhibition at 10 µM": 52}, {"smiles": "O=C(Nc1cc(Cl)ccc1Cl)N1CCC2(CC1)CN(Cc1ccccc1-c1ccccc1)C(=O)O2", "note": "[Example 25, 3-biphenyl-2-ylmethyl-2-oxo-1-oxa-3,8-diazaspiro[4.5]decane-8-carboxylic acid (2,5-dichlorophenyl)amide]", "inhibition at 10 µM": 53}, {"smiles": "O=C1OC2(CCN(Cc3ccc(OC(F)(F)F)cc3)CC2)CN1Cc1ccc(F)c(F)c1", "note": "[Example 81, 3-(3,4-difluorobenzyl)-8-(4-trifluoromethoxybenzyl)-1-oxa-3,8-diazaspiro[4.5]decan-2-one]", "inhibition at 10 µM": 75}, {"smiles": "CCSc1ncccc1C(=O)N1CCC2(CC1)CN(Cc1cccc(OC)c1)C(=O)O2", "note": "[Example 111, 8-(2-ethylsulfanylpyridine-3-carbonyl)-3-(3-methoxybenzyl)-1-oxa-3,8-diazaspiro[4.5]decan-2-one]", "inhibition at 10 µM": 71}, {"smiles": "CCOC(=O)c1cccc(NC(=O)N2CCC3(CC2)CN(Cc2ccccc2C(F)(F)F)C(=O)O3)c1", "note": "[Example 59, 3-{[2-oxo-3-(2-trifluoromethylbenzyl)-1-oxa-3,8-diazaspiro[4.5]decane-8-carbonyl]amino}benzoic acid ethyl ester]", "inhibition at 10 µM": 47}, {"smiles": "Cc1ccc2ccccc2c1CN1CCC2(CC1)CN(Cc1ccccc1C(F)(F)F)C(=O)O2", "note": "[Example 83, 8-(2-methylnaphthalen-1-ylmethyl)-3-(2-trifluoromethylbenzyl)-1-oxa-3,8-diazaspiro[4.5]decan-2-one]", "inhibition at 10 µM": 41}, {"smiles": "N#Cc1ccccc1CN1CC2(CCN(Cc3ccc(Cl)cc3)CC2)OC1=O", "note": "[Example 82, 2-[8-(4-chlorobenzyl)-2-oxo-1-oxa-3,8-diazaspiro[4.5]dec-3-ylmethyl]benzonitrile]", "inhibition at 10 µM": 56}, {"smiles": "O=C1OC2(CCN(C(=S)NCc3ccccc3)CC2)CN1Cc1ccc(C(F)(F)F)cc1", "note": "[Example 3, 2-oxo-3-(4-trifluoromethylbenzyl)-1-oxa-3,8-diazaspiro[4.5]decane-8-carbothioic acid benzylamide]", "inhibition at 10 µM": 69}, {"smiles": "Cc1cc(C)cc(CN2CC3(CCN(C(=O)c4ccc5nonc5c4)CC3)OC2=O)c1", "note": "[Example 117, 8-(benzo[1,2,5]oxadiazole-5-carbonyl)-3-(3,5-dimethylbenzyl)-1-oxa-3,8-diazaspiro[4.5]decan-2-one]", "inhibition at 10 µM": 73}, {"smiles": "COc1cccc(CC(=O)N2CCC3(CC2)CN(Cc2cc(C)cc(C)c2)C(=O)O3)c1", "note": "[Example 113, 3-(3,5-dimethylbenzyl)-8-[2-(3-methoxyphenyl)acetyl]-1-oxa-3,8-diazaspiro[4.5]decan-2-one]", "inhibition at 10 µM": 68}, {"smiles": "CCC(CC)C(=O)N1CCC2(CC1)CN(Cc1cccc(C#N)c1)C(=O)O2", "note": "[Example 134, 3-[8-(2-ethylbutyryl)-2-oxo-1-oxa-3,8-diazaspiro[4.5]dec-3-ylmethyl]benzonitrile]", "inhibition at 10 µM": 64}, {"smiles": "COc1ccc(Cl)cc1NC(=O)N1CCC2(CC1)CN(Cc1ccc(C#N)cc1)C(=O)O2", "note": "[Example 58, 3-(4-cyanobenzyl)-2-oxo-1-oxa-3,8-diazaspiro[4.5]decane-8-carboxylic acid (5-chloro-2-methoxyphenyl)amide]", "inhibition at 10 µM": 49}, {"smiles": "Cc1cc(C)cc(CN2CC3(CCN(C(=O)c4cccs4)CC3)OC2=O)c1", "note": "[Example 130, 3-(3,5-dimethylbenzyl)-8-(thiophene-2-carbonyl)-1-oxa-3,8-diazaspiro[4.5]decan-2-one]", "inhibition at 10 µM": 70}, {"smiles": "N#Cc1ccc(CN2CC3(CCN(C(=O)c4ccc(-c5ccccc5)cc4)CC3)OC2=O)cc1", "note": "[Example 115, 4-[8-(biphenyl-4-carbonyl)-2-oxo-1-oxa-3,8-diazaspiro[4.5]dec-3-ylmethyl]benzonitrile]", "inhibition at 10 µM": 84}, {"smiles": "N#Cc1ccc(CN2CC3(CCN(S(=O)(=O)c4ccc5c(c4)CN(C(=O)C(F)(F)F)CC5)CC3)OC2=O)cc1", "note": "[Example 142, 4-{2-oxo-8-[2-(2,2,2-trifluoroacetyl)-1,2,3,4-tetrahydroisoquinoline-7-sulfonyl]-1-oxa-3,8-diazaspiro[4.5]dec-3-ylmethyl}benzonitrile]", "inhibition at 10 µM": 67}, {"smiles": "Cc1ccc(NC(=O)N2CCC3(CC2)CN(Cc2ccc(SC(F)(F)F)cc2)C(=O)O3)cc1[N+](=O)[O-]", "note": "[Example 40, 2-oxo-3-(4-trifluoromethylsulfanylbenzyl)-1-oxa-3,8-diazaspiro[4.5]decane-8-carboxylic acid (4-methyl-3-nitrophenyl)amide]", "inhibition at 10 µM": 54}, {"smiles": "Cc1cc(C)cc(CN2CC3(CCN(C(=O)c4cc(C)on4)CC3)OC2=O)c1", "note": "[Example 122, 3-(3,5-dimethylbenzyl)-8-(5-methylisoxazole-3-carbonyl)-1-oxa-3,8-diazaspiro[4.5]decan-2-one]", "inhibition at 10 µM": 68}, {"smiles": "CCCCC(=O)N1CCC2(CC1)CN(Cc1cc([N+](=O)[O-])ccc1OC)C(=O)O2", "note": "[Example 123, 3-(2-methoxy-5-nitrobenzyl)-8-pentanoyl-1-oxa-3,8-diazaspiro[4.5]decan-2-one]", "inhibition at 10 µM": 71}, {"smiles": "COc1ccc([N+](=O)[O-])cc1CN1CC2(CCN(C(=S)NCc3ccccc3)CC2)OC1=O", "note": "[Example 23, 3-(2-methoxy-5-nitrobenzyl)-2-oxo-1-oxa-3,8-diazaspiro[4.5]decane-8-carbothioic acid benzylamide]", "inhibition at 10 µM": 60}, {"smiles": "COc1ccc([N+](=O)[O-])cc1CN1CC2(CCN(C(=O)Nc3cc(F)ccc3F)CC2)OC1=O", "note": "[Example 26, 3-(2-methoxy-5-nitrobenzyl)-2-oxo-1-oxa-3,8-diazaspiro[4.5]decane-8-carboxylic acid (2,5-difluorophenyl)amide]", "inhibition at 10 µM": 70}, {"smiles": "O=C1OC2(CCN(C(=O)c3c(Cl)cccc3Cl)CC2)CN1Cc1ccccc1F", "note": "[Example 139, 8-(2,6-dichlorobenzoyl)-3-(2-fluorobenzyl)-1-oxa-3,8-diazaspiro[4.5]decan-2-one]", "inhibition at 10 µM": 70}, {"smiles": "O=C1OC2(CCN(C(=S)NCc3ccccc3)CC2)CN1Cc1ccc(F)c(F)c1", "note": "[Example 11, 3-(3,4-difluorobenzyl)-2-oxo-1-oxa-3,8-diazaspiro[4.5]decane-8-carbothioic acid benzylamide]", "inhibition at 10 µM": 58}, {"smiles": "O=C1OC2(CCN(C(=S)NCc3ccccc3)CC2)CN1Cc1cccc(Br)c1", "note": "[Example 16, 3-(3-bromobenzyl)-2-oxo-1-oxa-3,8-diazaspiro[4.5]decane-8-carbothioic acid benzylamide]", "inhibition at 10 µM": 54}]}]}
